Results: publication PMC7251097, “Aspartate/asparagine-β-hydroxylase: a high-throughput mass spectrometric assay for discovery of small molecule inhibitors” (Scientific Reports, 2020)
Structures can show the parent of a compound that is named as a salt. Where two headings read alike, the source gives them in different places.

Molecular target: T1, His6-AspH315–758 (human aspartate/asparagine-β-hydroxylase, AspH) (Homo sapiens, UniProt Q12797)
T1 construct: N-Terminally His6-tagged human AspH315–758 (His6-AspH315–758) was produced in E. coli BL21 (DE3) cells; made in house; host or cells: E. coli BL21 (DE3), pET-28a(+) vector
T1 sequence (Q12797 315-758): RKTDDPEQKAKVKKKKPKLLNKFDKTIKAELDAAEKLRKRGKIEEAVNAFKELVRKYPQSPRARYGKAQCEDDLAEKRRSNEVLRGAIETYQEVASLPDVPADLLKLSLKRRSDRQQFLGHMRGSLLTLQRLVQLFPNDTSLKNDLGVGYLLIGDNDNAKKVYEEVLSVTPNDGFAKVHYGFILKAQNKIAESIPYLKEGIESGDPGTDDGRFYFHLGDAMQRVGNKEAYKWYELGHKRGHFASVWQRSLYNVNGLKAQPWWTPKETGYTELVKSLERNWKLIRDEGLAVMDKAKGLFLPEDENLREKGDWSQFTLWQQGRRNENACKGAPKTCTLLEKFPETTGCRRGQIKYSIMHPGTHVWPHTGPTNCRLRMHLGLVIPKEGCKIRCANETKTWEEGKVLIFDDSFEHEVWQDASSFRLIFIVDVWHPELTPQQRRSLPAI
Assay: SPE-MS AspH inhibition assay (LOPAC screen at fixed 20 μM and IC50 dose-response), hydroxylation of cyclic peptide hFX-CP101–119
Format: biochemical

[1] = LOPAC compound at 20uM, plate 2, conversion of substrate peptide
[2] = LOPAC compound at 20uM, plate 2, normalised to DMSO and 2,4-PDCA controls
[3] = LOPAC compound at fixed 20 uM, plate 1, normalised to DMSO and 2,4-PDCA controls
[4] = LOPAC compound at fixed 20 uM, substrate conversion, plate 1
[5] = LOPAC compound at 20uM, plate 2, normalised to DMSO and 2,4-PDCA controls, read-out: Plate 2 (% inhibition)
[6] = LOPAC compound at 20uM, plate 3, conversion of substrate peptide
[7] = LOPAC Plate 4, compound at 20 uM, substrate conversion
[8] = LOPAC Plate 4, compound at 20 uM, read-out: % inhibition
[9] = LOPAC Plate 4, compound at 20 uM

In the case of `C#CCN[C@H](C)Cc1ccccc1.Cl` [R-(-)-Desmethyldeprenyl hydrochloride], the “Plate 2 (% conversion)” value was 39.05% and the “Plate 2 (% inhibition)” value (20 µM) was -9.24%.

In the case of `CC(C)[C@@H]1CC[C@@H](C)C[C@@H]1P(=O)(c1ccccc1)c1ccccc1` [DPO-1], the “Plate 2 (% conversion)” value [1] was 40.63% and the “Plate 2 (% inhibition)” value [2] was -13.96%.

In the case of `COC(=O)[C@@H](N)Cc1ccc(O)c(O)c1.Cl`, the “Plate 2 (% conversion)” value [1] was 10.54% and the “Plate 2 (% inhibition)” value [2] was 75.90%.

`CC(C[N+](C)(C)C)OC(N)=O` (stereo not drawn) [Bethanechol chloride] was tested, and the “Plate 1 (% inhibition)” value [3] was -8.85% and the “Plate 1 (% conversion)” value [4] was 38.85%.

With `COc1cc(CC(=O)O)ccc1O` [4-Hydroxy-3-methoxyphenylacetic acid] the “Plate 2 (% conversion)” value was 38.57% and the “Plate 2 (% inhibition)” value (20 µM) was -7.80%.

`COC(=O)[C@H]1[C@H]2C[C@@H]3c4[nH]c5cc(OC)ccc5c4CCN3C[C@H]2C[C@@H](OC(=O)c2cc(OC)c(OC)c(OC)c2)[C@@H]1OC` [Reserpine] was tested, and the “Plate 1 (% inhibition)” value [3] was -13.78% and the “Plate 1 (% conversion)” value [4] was 40.50%.

`COc1cc2nc(N3CCN(C(=O)C4COc5ccccc5O4)CC3)nc(N)c2cc1OC` (stereo not drawn) [Doxazosin mesylate] was tested, and the “Plate 2 (% conversion)” value [1] was 41.90% and the inhibition at 20 µM [5] was -17.8%.

In the case of `Cc1ccc(S(=O)(=O)N[C@@H](CCCCN)C(=O)CCl)cc1.Cl`, the “% conversion” value was 33.91%.

For `COC(=O)C1=C(C)NC(C)=C(C(=O)OC)C1c1ccccc1[N+](=O)[O-]` [Nifedipine], the “Plate 3 (% conversion)” value was 39.50%.

For Ro 61-8048, the “Plate 3 (% conversion)” value [6] was 30.86%.

For `c1ccc2c(c1)CCCC2C1=NCCN1` (stereo not drawn) [Tetrahydrozoline hydrochloride], the “% conversion” value [7] was 39.98% and the inhibition at 20 µM [8] was -10.3%.

In the case of `O=C(O)Cc1ccccc1Nc1c(Cl)cccc1Cl` [Diclofenac sodium], the “Plate 2 (% conversion)” value [1] was 32.33% and the inhibition at 20 µM [5] was 10.8%.

`Cn1c(=O)c2[nH]c(-c3ccccc3)nc2n(C)c1=O` [1,3-Dimethyl-8-phenylxanthine] was tested, and the “Plate 3 (% conversion)” value [6] was 35.64%.

For `C[N+](C)(C)CCOC(N)=O` [Carbachol], the “Plate 1 (% inhibition)” value [3] was -3.17% and the “Plate 1 (% conversion)” value [4] was 36.94%.

With `O=C(O)[C@H]1CCCN[C@H]1C(=O)O` (racemic) [(±)-cis-Piperidine-2,3-dicarboxylic acid] the “% conversion” value was 39.41% and the “% inhibition” value (20 µM) was -8.61%.

For `O.O.O=C(Nc1ccc2c(c1)CCN(Cc1ncn[nH]1)C2)c1ccccc1-c1ccc(C(F)(F)F)cc1` [CP-346086 dihydrate], the “% inhibition” value [9] was -27.35% and the “% conversion” value [7] was 45.80%.

`C[C@H](CSC(=O)c1ccccc1)C(=O)N1C[C@@H](Sc2ccccc2)C[C@H]1C(=O)[O-].C[C@H](CSC(=O)c1ccccc1)C(=O)N1C[C@@H](Sc2ccccc2)C[C@H]1C(=O)[O-].[Ca+2]` [Zofenopril calcium] was tested, and the “% conversion” value was 32.50% and the “% inhibition” value (20 µM) was 11.63%.

With `CC(C(=O)O)c1ccc(CC2CCCC2=O)cc1` (stereo not drawn) [loxoprofen] the “Plate 3 (% conversion)” value [6] was 35.95%.

With `O=C(OCCN1CCOCC1)C1(c2ccccc2)CCCCC1` [PRE-084] the “Plate 3 (% conversion)” value [6] was 38.46%.

For `Nc1nc2c(nc(Br)n2[C@@H]2O[C@@H]3COP(=O)([O-])O[C@H]3[C@H]2O)c(=O)[nH]1.[Na+]` [8-Bromo-cGMP sodium], the “Plate 1 (% inhibition)” value [3] was 5.25% and the “Plate 1 (% conversion)” value [4] was 34.11%.

In the case of `COC1(C2=NCCN2)COc2ccccc2O1.Cl` (stereo not drawn) [RX 821002 hydrochloride], the “% inhibition” value [9] was -13.78% and the “% conversion” value [7] was 41.17%.

In the case of `NS(=O)(=O)c1ccc(-n2nc(C(F)(F)F)cc2-c2ccc(Cl)cc2)cc1` [SC-236], the “Plate 3 (% conversion)” value [6] was 40.00%, the “Plate 5 (% inhibition)” value (plate 5 (Pfitzer), test compounds at fixed 20 μM) was -23.50% and the “Plate 5 (% conversion)” value (plate 5 (Pfitzer), test compounds at fixed 20 μM, mean conversion DMSO 32.88) was 44.31%.

With `N[C@@H](Cc1c[nH]c2ccccc12)C(=O)O` [L-Tryptophan] the “% conversion” value [7] was 29.06%.

With `CCCN[C@H]1CCc2nc(N)sc2C1` [Pramipexole dihydrochloride] the “% conversion” value [7] was 39.77%.

In the case of `CN(C)c1ccc(O)c2c1C[C@H]1C[C@H]3[C@H](N(C)C)C(O)=C(C(N)=O)C(=O)[C@@]3(O)C(O)=C1C2=O` [Minocycline hydrochloride], the “Plate 3 (% conversion)” value [6] was 8.64%.

In the case of `C[C@]12CC[C@@H](O)C[C@@H]1CC[C@@H]1[C@@H]2CC[C@]2(C)[C@@H](C(=O)CO)CC[C@@H]12`, the “Plate 3 (% conversion)” value was 42.66%.

`CCCCC[C@H](CC(=O)NO)C(=O)N[C@H](C(=O)N1CCC[C@H]1CO)C(C)C` [Actinonin] was tested, and the “Plate 1 (% inhibition)” value [3] was -5.32% and the “Plate 1 (% conversion)” value [4] was 37.66%.

In the case of `CCN1CCCC1CNC(=O)c1cc(S(=O)(=O)CC)c(N)cc1OC` (stereo not drawn) [Amisulpride], the “% conversion” value [7] was 40.99% and the inhibition at 20 µM [8] was -13.2%.

In the case of `COc1cc(/C=C/C(=O)N2CCC=CC2=O)cc(OC)c1OC` [Piperlongumine], the “Plate 3 (% conversion)” value was 35.88%.

For `COc1ccc(/C=C/c2nc(NCCCN(C)C)c3ccccc3n2)cc1.Cl.Cl.O` [CP-31398 dihydrochloride hydrate], the “% conversion” value [7] was 42.00%.

For `CC1CCN=C(N)S1.Cl` (racemic) [(±)-AMT hydrochloride], the “Plate 1 (% conversion)” value was 36.89% and the “Plate 1 (% inhibition)” value was -3.04%.

With `O=C1NC(=O)c2cc(Nc3ccccc3)c(Nc3ccccc3)cc21` [DAPH] the “Plate 1 (% inhibition)” value [3] was -7.17% and the “Plate 1 (% conversion)” value [4] was 38.28%.

For `C[C@@H](N)Cc1cnc[nH]1.Cl.Cl`, the “Plate 2 (% conversion)” value was 36.76% and the “Plate 2 (% inhibition)” value (20 µM) was -2.41%.

With `Cl.c1ccc(CN(CC2=NCCN2)c2ccccc2)cc1` [Antozoline hydrochloride] the “Plate 1 (% inhibition)” value [3] was -17.43% and the “Plate 1 (% conversion)” value [4] was 41.73%.

`C[N+](C)(C)CCOP(=O)([O-])OP(=O)([O-])OC[C@H]1O[C@@H](n2ccc(N)nc2=O)[C@H](O)[C@@H]1O.[Na+]` was tested, and the “Plate 2 (% conversion)” value [1] was 36.80% and the “Plate 2 (% inhibition)” value [2] was -2.53%.

`O=c1n(CCCN2CCN(c3cccc(Cl)c3)CC2)nc2ccccn12` [Trazodone hydrochloride] was tested, and the “% conversion” value [7] was 39.67% and the inhibition at 20 µM [8] was -9.38%.

`O=C(c1ccc(Cl)cc1)N1CCN(c2ccc([N+](=O)[O-])c3ncccc23)CC1` [CPNQ] was tested, and the “Plate 2 (% conversion)” value [1] was 35.99% and the “Plate 2 (% inhibition)” value [2] was -0.10%.

With `CNCCCC12CCC(c3ccccc31)c1ccccc12` [Maprotiline hydrochloride] the “Plate 3 (% conversion)” value [6] was 42.77%.

For `CC1=C(CC(=O)O)c2cc(F)ccc2/C1=C\c1ccc([S+](C)[O-])cc1` (stereo not drawn) [Sulindac], the “% conversion” value [7] was 35.56% and the inhibition at 20 µM [8] was 2.67%.

With `Cl.N#Cc1ccc(N2CCN(C(=O)COc3ccc4[nH]cc(CCN)c4c3)CC2)cc1` [Donitriptan monohydrochloride] the “Plate 2 (% conversion)” value [1] was 23.20% and the “Plate 2 (% inhibition)” value [2] was 38.09%.

`Cc1c(-c2ccc(-c3ccccc3F)cc2)nc2ccc(F)cc2c1C(=O)[O-].[Na+]` [Brequinar sodium salt hydrate] was tested, and the “Plate 1 (% inhibition)” value [3] was 11.82% and the “Plate 1 (% conversion)” value [4] was 31.90%.

For `CCNc1nc2c(ncn2[C@H]2C[C@H](O)[C@@H](CO)O2)c(=O)[nH]1` [N2-Ethyl-2-deoxyguanosine], the “% conversion” value [7] was 26.09%.

For `COc1ccc(/C=C2\COc3ccc(C)cc3C2=O)cc1O` [IMS2186], the “% conversion” value [7] was 32.74%.

For `C[N+](C)(C)CCCCCCCCCC[N+](C)(C)C.[Br-].[Br-]` [Decamethonium dibromide], the “Plate 2 (% conversion)” value was 41.52% and the “Plate 2 (% inhibition)” value (20 µM) was -16.63%.

In the case of `CCCCS(=O)(=O)N[C@@H](Cc1ccc(OCCCCC2CCNCC2)cc1)C(=O)O` [Tirofiban hydrochloride monohydrate], the “% conversion” value [7] was 29.35%.

In the case of `N.N.N.N.N.N.N.N.N.N.N.N.N.N.[Cl-].[Cl-].[Cl-].[Cl-].[Cl-].[Cl-].[O-2].[O-2].[Ru+3].[Ru+3].[Ru+4]` [Ruthenium red], the “% inhibition” value [9] was -14.56% and the “% conversion” value [7] was 41.44%.

`CNCCC(Oc1ccccc1OC)c1ccccc1` (stereo not drawn) [Nisoxetine hydrochloride] was tested, and the “Plate 3 (% conversion)” value was 39.53%.

With `N[C@H](C(=O)O)[C@H](O)c1ccc(O)c(O)c1` [L-DOPS] the “Plate 3 (% conversion)” value [6] was 7.53%.

For `C[N+](C)(C)CCCCCC[N+](C)(C)C.[Cl-].[Cl-]` [Hexamethonium dichloride], the “Plate 2 (% conversion)” value was 37.53% and the “Plate 2 (% inhibition)” value (20 µM) was -4.72%.

In the case of `COc1cccc(OC)c1OCCNCC1CSc2ccccc2O1` (stereo not drawn) [Benoxathian hydrochloride], the “Plate 1 (% inhibition)” value [3] was -17.92% and the “Plate 1 (% conversion)” value [4] was 41.89%.

`COc1nc(C)nc(Cl)c1NC1=NCCN1.Cl` [Moxonidine hydrochloride] was tested, and the “Plate 3 (% conversion)” value [6] was 33.12%.

With `Br.Br.N=C(N)SCCN` the “Plate 1 (% inhibition)” value [3] was -13.77% and the “Plate 1 (% conversion)” value [4] was 40.50%.

For `CCCCCCCC/C=C\CCCCCCCC(=O)O` [Oleic Acid], the “Plate 3 (% conversion)” value was 10.92%.

`Cc1cc(Cl)ccc1OCCCC(=O)NO` [Droxinostat] was tested, and the “Plate 1 (% inhibition)” value [3] was 1.86% and the “Plate 1 (% conversion)” value [4] was 35.25%.

With `C[N+]1(C)CCC(OC(=O)C(c2ccccc2)c2ccccc2)CC1.[I-]` [4-DAMP] the “% inhibition” value [9] was -3.63% and the “% conversion” value [7] was 37.71%.

For `C[N+]1(CCCCC[N+]2(C)CCCC2)CCCC1.O=C([O-])C(O)C(O)C(=O)O.O=C([O-])C(O)C(O)C(=O)O` [Pentolinium di[L(+)-tartrate]], the “Plate 3 (% conversion)” value [6] was 9.60%.

`COCCOC(=O)C1=C(C)NC(C)=C(C(=O)OC(C)C)C1c1cccc([N+](=O)[O-])c1` (stereo not drawn) [Nimodipine] was tested, and the “Plate 3 (% conversion)” value [6] was 43.84%.
